Series [1] concerns Intestinal alkaline phosphatase (IAP). Description: IAP level in duodenum of LPS-challenged mice. Type of series: in vivo. Particulars: duodenum homogenate, peptides 0.25 μmol per kg, PMB 10 μmol per kg, LPS alone 10.2985, CK 14.2257, n = 3. Here is the method: The mice were intraperitoneally injected with LPS at an absolute LD100 and then were treated with 0.25 μmol per kg peptides (A6, G6 and N6) or 10 μmol per kg PMB at 0.5 h after challenge. The mice were sacrificed at 2 h and the sera were collected to detect inflammatory cytokines (including TNF-α, IL-6 and IL-10) using ELISA kits. To visualize IAP activity, the duodenum was rapidly excised from the mice and was homogenized; the IAP levels in the superpants were detected as described in the Supplementary Information. […]
114 Effects of SCPs on inflammatory cytokines and IAP. The serum sample (50 μl) was added into
115 each well of the plate; 50 μl of TNF-α, IL-I, IL-10 or IAP standard, control and test samples were then
116 added to each well of the plate, followed by placing the latex film on the shaker and incubation for 2
117 h at room temperature. After discarding the liquid in the well, the enzyme labeling plate was placed in
118 a 400 μl washing solution in the washing machine for 4 times; the enzyme labeling plate is inverted
119 and tapped on a clean paper towel so that there was no residual liquid in each hole . Mouse TNF-α，
120 IL-I，IL10 or IAP Conjugate (HRP Conjugate Detection Ab) working solution (100 μl) was added to
121 each well of the plate (diluted 1:100 before the test); the latex film was placed on the shaker and
122 incubated for 2 h at room temperature. After discarding the liquid in the well, the enzyme labeling
123 plate was placed in a 400 μl washing solution in the washing machine for 4 times, then the enzyme
124 labeling plate is inverted, and tapped on a clean paper towel so that there is no residual liquid in each
125 hole. Substrate Solution (100 μl) was added to each well of the plate and incubated at room
126 temperature for 30 min in the dark. Finally, 100 μl of Stop Solution (2N sulfuric acid solution) was
127 added to each well of the plate and gently mixed the plate to stop the reaction. The optical density
128 value was read by placing the microplate in a microplate reader for 30 min with the reading
129 wavelength of 450 nm and the calibration wavelength of 570 nm.
131 1. Kaplan, C. W., et al. Selective membrane disruption: mode of action of C16G2, a specifically
133 2. Eckert, R., et al. Adding selectivity to antimicrobial peptides: rational design of a multidomain
134 peptide against Pseudomonas spp. Antimicrob Agents Chemother. 50(4), 1480–1488 (2006).
135 3. Eckert, R., et al. Targeted killing of Streptococcus mutans by a pheromone-guided "smart"

Series [2] deals with E. coli LPS. Description: BODIPY-TR-cadaverine (BC) displacement assay. Particulars: 100 μM. Type of series: binding, Escherichia coli. As for the experimental part:
The affinity of SCPs (A6, G6, and N6) to E. coli LPS was detected by the fluorescent BC probe. The binding of fluorescent probe with LPS can cause fluorescence quenching. When peptides bind to LPS, BC probe can be replaced, which can result in an increase in fluorescence. Equal volumes of LPS (40 μg per ml) and BC probe (10 μM) in 50 mM Tris buffer (pH 7.4) were mixed and added into a black 96-well microtiter plate (180 μl mixture per well), followed by the addition of different concentrations of A6, G6, or N6 (20 μl per well). Ampicillin and PMB were used as the negative and positive control, respectively. Changes in fluorescence were measured by a fluorescence spectrophotometry at room temperature (excitation: 580 nm, emission: 620 nm) and the BC displacement rate was calculated.

The subject of series [3] is MDR E. coli CVCC195. Description: Time-killing curves (bactericidal kinetics). Type of series: cell-based, Escherichia coli. Particulars: 1 × or 2 × MIC, MHB, 37 °C. Here is the method:
The bactericidal effect of peptides was investigated according to previous methods. […] Physiological saline was added as a control. Bacterial samples (100 μl) were removed at different time points (0, 0.5, 1, 2, 4, 6, 8, 10, and 12 h) and were counted on MH solid plates. The time-killing curve of A6 and G6 was plotted.

Series [4] has as its system MDR E. coli CVCC195. The experiment in a line: pH stability, residual antibacterial activity (inhibition zone). Type of series: physicochemical, Escherichia coli. Particulars: inhibition zone vs E. coli CVCC195, mean of n = 3.
Protocol: (§1) The N6, A6, and G6 solutions were treated at different temperatures (20–100 °C) for 1 h, dissolved and incubated at different pH values (2–10) for 3 h, or incubated with trypsin or pepsin for 4 h. The inhibition zone diameters were measured after incubation at 37 °C for 18–24 h.
The test system of series [5] is 1:1 mixture of E. coli CVCC195 and S. aureus ATCC43300. Type of series: cell-based, Escherichia coli; Staphylococcus aureus. The note with it: Mean. Here is the method: The selectivity of A6, G6, and N6 against Gram-negative and Gram-positive bacteria was determined using the mixed-culture bactericidal kinetics assay, as described in the Supplementary Information.
27 Supplementary Figure 6. Killing selectivity of peptides. A 1:1 mixture of E. coli (Ec) and S. aureus
28 (Sa) was treated with A6 (16 μg per ml), G6 (16 μg per ml) or N6 (2 μg per ml) for 1, 3 and 5 min,
29 respectively; survivors were counted in MH plates. The change in relative ratio of E. coli to S. aureus
30 (Ec/Sa) after treatment with A6, G6 or N6 is shown.
31 independent experiments).
(1 picture or pasted object on this page, not shown here)
102 Supplementary Methods
103 Mixed-culture bactericidal kinetics of SCPs-A6 and G6. The mid-exponential phage E. coli
104 CVCC195 and S. aureus ATCC43300 cultures were diluted to 2 × 10^5 CFU per ml, mixed (1:1) and
105 added into the 96-well plates. A6, G6 or N6 were added into each well of plates to final concentration
106 of 16 (A6 and G6) or 2 (N6) μg per ml in a 200-μl total volume. An aliquot was removed at 1, 3 and 5
107 min, respectively, and survivors were counted on MH solid plates1–3. […]

The test system of series [6] is MDR E. coli CVCC195. The experiment in a line: Thermal stability, residual antibacterial activity (inhibition zone). Type of series: physicochemical, Escherichia coli. The note with it: mean of n = 3.
Protocol: as §1
Setting [7] is: 20℃ for 1 h, inhibition zone vs E. coli CVCC195 after 37 °C 18–24 h.
Setting [8] is: 40℃ for 1 h, inhibition zone vs E. coli CVCC195.
The mark [9] stands for this setting: 60℃ for 1 h, inhibition zone vs E. coli CVCC195.
The mark [10] stands for this setting: 80℃ for 1 h, inhibition zone vs E. coli CVCC195.
[11] abbreviates: 100℃ for 1 h, inhibition zone vs E. coli CVCC195.

Read-outs that look alike come from different tables or passages of the source. Where a SMILES comes first, the peptide text is derived from it. Bridges are numbered along the chain shown (N, C = ends).

This note sets out measurements from article PMC6978316, “Development of chimeric peptides to facilitate the neutralisation of lipopolysaccharides during bactericidal targeting of multidrug-resistant Escherichia coli” (Communications Biology, 2020).

Take `CC(C)[C@@H]1NC(=O)CNC(=O)[C@H](CC(N)=O)NC(=O)[C@H](CCCNC(=N)N)NC(=O)[C@H](Cc2ccc(O)cc2)NC(=O)[C@H](C(C)C)NC(=O)[C@@H](NC(=O)[C@@H](NC(=O)[C@H](CC(N)=O)NC(=O)[C@H](Cc2c[nH]c3ccccc23)NC(=O)[C@H](C)NC(=O)[C@H](Cc2ccccc2)NC(=O)CNC(=O)[C@H](CO)NC(=O)CNC(=O)CNC(=O)CNC(=O)CNC(=O)[C@H](CCCCN)NC(=O)[C@H](Cc2ccccc2)NC(=O)[C@H](Cc2ccccc2)NC(=O)[C@H](CO)NC(=O)[C@H](C)NC(=O)[C@H](CCCNC(=N)N)NC(=O)[C@@H](NC(=O)[C@H](CCCCN)NC(=O)[C@H](Cc2c[nH]c3ccccc23)NC(=O)[C@H](CCCNC(=N)N)NC(=O)CNC(=O)[C@H](CCC(N)=O)NC(=O)[C@@H](NC(=O)[C@@H](N)CCCNC(=N)N)C(C)C)C(C)C)C(C)C)CSSC[C@@H](C(=O)N[C@@H](Cc2c[nH]cn2)C(=O)N[C@@H](CCCNC(=N)N)C(=O)N[C@@H](CCCNC(=N)N)C(=O)N[C@@H](C)C(=O)N[C@@H](CC(N)=O)C(=O)O)NC(=O)[C@H](C(C)C)NC(=O)[C@H](CCCNC(=N)N)NC1=O` [G6] (H-RVQGRWKVRASFFKGGGGSGFAWNVCVYRNGVRVCHRRAN-OH; disulfide 26-35): the “IAP, Mean” value in series [1] is reported as 11.4812. Besides, in series [2], the BC displacement ratio is 100%. For the same compound, the “time to completely kill E. coli CVCC195” value in series [3] is listed as at most 1 h. In addition, the “antibacterial activity after pH treatment (inhibition zone diameter), Mean” value in series [4] (pH=2 for 3 h) was 1.407; in series [4] (pH=4 for 3 h) it was 1.44; in series [4] (pH=6 for 3 h) it was 1.4; in series [4] (pH=8 for 3 h), 1.383; in series [4] (pH=10 for 3 h), 1.387. Further, the entries for the “killing selectivity of peptides” value in series [5] (time 0 min), in series [5] (time 1 min) and in series [5] (time 3 min) were 0.9569, 0.5118 and 0.1311, respectively. The “antibacterial activity after heat treatment (inhibition zone diameter), Mean” value is listed as 1.451 in series [6] (setting [7]); 1.421 in series [6] (setting [8]); 1.5 in series [6] (setting [9]); 1.473 in series [6] (setting [10]); 1.413 in series [6] (setting [11]).
On to polymyxin B [PMB], for which the “IAP, Mean” value in series [1] is reported as 13.0879. Moreover, in series [2], the BC displacement ratio turned out to be 83.7%. The “time to completely kill E. coli CVCC195” value in series [3] was at most 1 h.
For “H-RVQGRWKVRASFFKEAAAKEAAAKGFAWNVCVYRNGVRVCHRRAN-OH (disulfide 31-40) [A6]”, the “IAP, Mean” value in series [1] was 11.893. The BC displacement ratio in series [2] worked out at 100%. Moreover, the “time to completely kill E. coli CVCC195” value in series [3] is at most 1 h. Moreover, the “antibacterial activity after pH treatment (inhibition zone diameter), Mean” value in series [4] (pH=2 for 3 h) amounted to 1.463; in series [4] (pH=4 for 3 h), 1.443; in series [4] (pH=6 for 3 h), 1.4; in series [4] (pH=8 for 3 h), 1.41; in series [4] (pH=10 for 3 h) it was 1.4. For the same compound, the “killing selectivity of peptides” value in series [5] (time 0 min) worked out at 0.9569; in series [5] (time 1 min), 0.7697; in series [5] (time 3 min) it was 0.8015; in series [5] (time 5 min), 0.5904. Also, the “antibacterial activity after heat treatment (inhibition zone diameter), Mean” value turned out to be 1.498 in series [6] (setting [7]); 1.533 in series [6] (setting [8]); 1.494 in series [6] (setting [9]); 1.5 in series [6] (setting [10]); 1.477 in series [6] (setting [11]).
Turning to `CC(C)[C@@H]1NC(=O)CNC(=O)[C@H](CC(N)=O)NC(=O)[C@H](CCCNC(=N)N)NC(=O)[C@H](Cc2ccc(O)cc2)NC(=O)[C@H](C(C)C)NC(=O)[C@@H](NC(=O)[C@@H](NC(=O)[C@H](CC(N)=O)NC(=O)[C@H](Cc2c[nH]c3ccccc23)NC(=O)[C@H](C)NC(=O)[C@H](Cc2ccccc2)NC(=O)CN)C(C)C)CSSC[C@@H](C(=O)N[C@@H](Cc2c[nH]cn2)C(=O)N[C@@H](CCCNC(=N)N)C(=O)N[C@@H](CCCNC(=N)N)C(=O)N[C@@H](C)C(=O)N[C@@H](CC(N)=O)C(=O)O)NC(=O)[C@H](C(C)C)NC(=O)[C@H](CCCNC(=N)N)NC1=O` [N6] (H-GFAWNVCVYRNGVRVCHRRAN-OH; disulfide 7-16; N-terminus and C-terminus assumed), the “IAP, Mean” value in series [1] is 10.7594. The BC displacement ratio in series [2] worked out at 90.5%. The “time to completely kill E. coli CVCC195” value in series [3] was found to be 4 h. For the same compound, the “antibacterial activity after pH treatment (inhibition zone diameter), Mean” value was 1.883 in series [4] (pH=2 for 3 h); 1.877 in series [4] (pH=4 for 3 h); 1.87 in series [4] (pH=6 for 3 h); 1.86 in series [4] (pH=8 for 3 h); 1.887 in series [4] (pH=10 for 3 h). Moreover, the “killing selectivity of peptides” value in series [5] (time 0 min) is reported as 0.9569; in series [5] (time 1 min), 0.9093; in series [5] (time 3 min) it was 0.8204; in series [5] (time 5 min) it was 0.6732. Also, the “antibacterial activity after heat treatment (inhibition zone diameter), Mean” value is recorded as 1.935 in series [6] (setting [7]); 1.912 in series [6] (setting [8]); 1.95 in series [6] (setting [9]); 1.964 in series [6] (setting [10]); 1.917 in series [6] (setting [11]).
